Data on one compound can be found in patent US20060141022A1, “Soft capsule preparation” (priority 2002, published 2006).

Series [1] in a line: Stability test of NIK-333 in sealed bottle (peroxide value). Format: physicochemical. The following applies: 25° C., sealed bottle in aluminium bag. How it is done:
NIK-333 was filled in a sealed bottle and the bottle was put into an aluminium bag. This sample was stored at 25° C., and after 0, 1, and 3 months, the peroxide values were measured.

In another series the test system is hepatoma. The following applies: one-year oral administration, patients after therapeutic treatment of hepatoma; cited from earlier work.

Each structure is given as a SMILES string.

Turning to `CC(C)=CCC/C(C)=C/CC/C(C)=C/C=C/C(C)=C/C(=O)O` [NIK-333, (2E,4E,6E,10E )-3,7,11,15-Tetramethyl-2,4,6,10,14-hexadecapentaenoic acid], the Peroxide value in series [1] (storage period 0 month) was 0.4 meq/kg; in series [1] (storage period 1 month) it was 6.2 meq/kg; in series [1] (storage period 3 months), 14.4 meq/kg. Further, the recurrence of hepatoma result with hepatoma is on record as “suppress recurrence of hepatoma”. In the series on hepatoma, the safety result is given as “high safety”. In addition, the “survival rate of the patients” value with hepatoma was “increased survival rate of the patients”.
